Measured values published in PubChem BioAssay AID1633 (PCMD, 2009).

Target: Procathepsin L (Homo sapiens) (UniProt P07711)
Test: CTSL inhibition IC50, probe compound – biochemical, dose response (AID 1633)
Details: purified cathepsin L, fluorogenic substrate, enzyme inhibition

Chain of Procathepsin L (Homo sapiens) (P07711 114-288 limits assumed): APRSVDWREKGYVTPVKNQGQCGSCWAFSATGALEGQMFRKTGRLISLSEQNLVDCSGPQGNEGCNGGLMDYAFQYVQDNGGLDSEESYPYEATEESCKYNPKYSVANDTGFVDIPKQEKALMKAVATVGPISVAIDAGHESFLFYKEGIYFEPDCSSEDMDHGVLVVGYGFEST
Chain of Procathepsin L (Homo sapiens) (P07711 292-333 limits assumed): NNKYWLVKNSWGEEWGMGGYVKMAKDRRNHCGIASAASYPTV

Structure (SMILES): CCc1ccccc1NC(=O)CSC(=O)NNC(=O)[C@H](Cc1c[nH]c2ccccc12)NC(=O)OC(C)(C)C
- IC50: 201 nM
